Laboratory results reported in PubChem BioAssay (NCI).
“And” between values parts separate entries of the source, which are not always exact repeats. Equal entries are not always repeated.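 48-hour exposure; five concentrations; linearly interpolated endpoints. The concentration for 50% growth inhibition is given as GI50. The concentration for full growth arrest is given as TGI.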

Key:
Assay in all cases: NCI-60 cell line screen, 48 h
[1] = system: NCI-H23 lung
[2] = system: 786-0 renal
[3] = system: U251 CNS
[4] = system: SK-MEL-5 melanoma
[5] = system: K-562 leukemia
[6] = system: SNB-19 CNS
[7] = system: COLO 205 colon
[8] = system: SN12C renal
[9] = system: OVCAR-8 ovarian
[10] = system: IGROV1 ovarian

SMILES	GI50 [1] [µM]	TGI [1] [µM]	GI50 [2]	TGI [2] [µM]	GI50 [3] [µM]	TGI [3] [µM]	GI50 [4] [µM]	TGI [4] [µM]	GI50 [5]	TGI [5]	GI50 [6] [µM]	TGI [6] [µM]	GI50 [7]	TGI [7] [µM]	GI50 [8] [µM]	TGI [8] [µM]	GI50 [9] [µM]	TGI [9]	GI50 [10] [µM]	TGI [10] [µM]
CC1CCc2c(C(=O)Nc3ncc(Cc4cccc([N+](=O)[O-])c4)s3)csc2C1 (configuration not stated)	1.83	> 100	1.18 µM	> 100	0.523	> 100	0.476	> 100	0.213 µM	> 100 µM	0.678	> 100	0.37 µM	19.6	1.49	> 100	1.42	> 100 µM	0.753	> 100
CC1=Nc2ccccc2S/C1=C1/C=NC(=NC#N)N=C1C(=O)Nc1cccc(Cl)c1	–	> 100	–	> 100	–	> 100	–	> 100	–	> 100 µM	–	> 100	–	> 100	–	> 100	–	> 100 µM	–	> 100
N#Cc1c(N)oc2cc3c(C#N)c(N)oc3cc12	–	> 100	–	> 100	–	> 100	–	> 100	–	> 100 µM	–	> 100	–	> 100	–	> 100	–	> 100 µM	–	> 100
CCN(CC)c1ccc(N=Nc2ccc(-c3nc4cccnc4s3)cc2)cc1	–	> 100	–	> 100	–	> 100	–	> 100	–	> 100 µM	–	> 100	–	> 100	–	> 100	–	> 100 µM	–	> 100
CN(N=O)c1ccc(/C=C/c2ccnc3ccccc23)cc1	–	> 100	–	> 100	–	> 100	–	> 100	–	> 100 µM	–	> 100	–	> 100	–	> 100	–	> 100 µM	–	> 100
CN1CCN(Cc2ccc(NC(=O)c3cncc(C#Cc4c(N)ncc5ccccc45)c3)cc2C(F)(F)F)CC1	0.656	1.46	0.89 µM	1.66	0.686	1.41	0.719	1.38	0.005 µM	0.715 µM	0.924	1.76	0.213 µM	0.812	0.627	1.31	0.839	1.91 µM	0.373	1.2
Cc1nc2ccccc2c(=O)n1/N=C(\N=Nc1cc(Cl)ccc1Cl)c1ccc(N(C)C)cc1	–	> 100	–	> 100	–	> 100	–	> 100	–	> 100 µM	–	> 100	–	> 100	–	> 100	–	> 100 µM	–	> 100
COc1ccc2c(c1O)[C@@]13CCCC=C1[C@@H](C2)N(C)CC3	–	> 100	–	> 100	–	> 100	–	> 100	–	> 100 µM	–	> 100	–	> 100	–	> 100	–	> 100 µM	–	> 100
COc1cc(/C=N\Nc2ccccc2)ccc1OC(=O)c1ccccc1	15.8	> 100	5.09 µM	> 100	8.38	36.5	1.53	18.9	0.369 µM	11.8 µM	19.8	> 100	6.48 µM	25.5	11	> 100	3.46	> 100 µM	2.76	> 100
CC[C@H](C)[C@H](NC(=O)CN(C)C)C(=O)N(C)[C@H](C[C@@H](OC(C)=O)c1nc(C(=O)NC23C4C5C2C2C3C4C52C(=O)OC)cs1)C(C)C (some centres not stated)	1.42	> 33.2	0.79 µM	> 33.2	0.8	> 33.2	0.299	6.75	0.138 µM	> 33.2 µM	1.31	> 33.2	0.247 µM	5.53	0.276	> 18.8	0.507	> 33.2 µM	0.428	> 33.2
N#Cc1cnn(C(=O)c2nn(-c3ccc(Cl)cc3)cc2O)c1N	0.371	15.1	0.658 µM	16.3	0.284	20.6	0.464	2.51	0.253 µM	–	0.443	> 60.5	0.619 µM	2.13	0.342	17.5	0.474	> 44.4 µM	0.365	12.7
COC(=O)c1sc(-n2cnc3cc(OC)c(OC)cc32)cc1OCc1ccccc1C(F)(F)F	> 25	> 25	10.8 µM	> 25	10.8	> 25	> 25	> 25	> 25 µM	> 25 µM	24.9	> 25	> 25 µM	> 25	> 25	> 25	15.3	> 25 µM	> 25	> 25
O=C1OC(c2ccccc2)=N/C1=C\c1ccccc1	–	> 100	44.6 µM and > 100 µM	> 100	–	> 100	–	> 100	> 100 µM and 19.8 µM	> 100 µM and 46.3 µM	–	> 100	> 100 µM and 37.2 µM	> 100	–	> 100	–	> 100 µM and 73.1 µM	–	> 100
Nc1nc(SCC#CCCl)c2[nH]cnc2n1	4.46	20.1	4.3 µM	14.9	2.97	7.79	3.11	12.6	4.5 µM	40.5 µM	10.5	23.2	4.4 µM	14.9	4.75	18	11.6	33.1 µM	4.58	23
C(=C\c1ccc2ccccc2c1Nc1ccccc1)/c1ccccc1	–	> 87.6	–	33.9	–	> 64.1	–	> 100	–	26.1 µM	–	> 90.5	–	> 100	–	> 100	–	81.1 µM	–	> 100
